Test results from PMC4029082, “Functional characterisation of a nicotinic acetylcholine receptor α subunit from the brown dog tick, Rhipicephalus sanguineus^” (International Journal for Parasitology, 2014).
pEC50: −log10 of the molar value.

Molecular target: T1, Rsanα1 nicotinic acetylcholine receptor α subunit (Rhipicephalus sanguineus, UniProt V9Z9T0)
T1 construct: full-length Rsanα1 (GenBank KF695387) expressed in Xenopus laevis oocytes; with chicken β2 nAChR subunit
Test: two-electrode voltage clamp in Xenopus oocytes, concentration-response curve (agonist)
Format: cell-based

T1 sequence (V9Z9T0 45-525): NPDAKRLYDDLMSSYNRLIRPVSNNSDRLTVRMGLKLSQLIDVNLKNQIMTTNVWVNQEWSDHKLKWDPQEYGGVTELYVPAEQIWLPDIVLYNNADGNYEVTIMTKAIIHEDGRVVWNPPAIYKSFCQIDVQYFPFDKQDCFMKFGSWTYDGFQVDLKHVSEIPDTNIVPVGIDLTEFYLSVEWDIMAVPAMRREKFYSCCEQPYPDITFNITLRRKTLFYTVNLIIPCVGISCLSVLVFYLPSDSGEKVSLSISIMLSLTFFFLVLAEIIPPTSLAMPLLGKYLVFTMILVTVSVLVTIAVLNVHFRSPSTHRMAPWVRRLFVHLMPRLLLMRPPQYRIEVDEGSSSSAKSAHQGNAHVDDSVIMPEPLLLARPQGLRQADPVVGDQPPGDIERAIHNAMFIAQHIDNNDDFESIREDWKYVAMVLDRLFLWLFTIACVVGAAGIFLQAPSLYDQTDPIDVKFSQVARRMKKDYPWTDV
T1 sequence (P09484 19-491 partner): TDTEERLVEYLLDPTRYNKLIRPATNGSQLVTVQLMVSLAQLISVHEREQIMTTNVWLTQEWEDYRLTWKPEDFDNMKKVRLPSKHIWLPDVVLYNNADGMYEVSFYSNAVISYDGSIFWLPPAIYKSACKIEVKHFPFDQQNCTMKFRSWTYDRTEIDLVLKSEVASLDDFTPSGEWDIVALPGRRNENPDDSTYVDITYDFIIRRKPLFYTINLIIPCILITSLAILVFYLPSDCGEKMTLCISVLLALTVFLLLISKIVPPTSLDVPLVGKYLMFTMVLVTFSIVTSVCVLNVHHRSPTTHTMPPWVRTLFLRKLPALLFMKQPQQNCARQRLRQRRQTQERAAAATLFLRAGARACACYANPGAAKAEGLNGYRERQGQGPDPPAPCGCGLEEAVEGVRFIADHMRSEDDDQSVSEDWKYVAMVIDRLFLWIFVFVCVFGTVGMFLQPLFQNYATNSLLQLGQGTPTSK

## CC(=O)OCC[N+](C)(C)C [acetylcholine]
  pEC50: 4.97
